Patent US11414429B2, “Compound or pharmaceutically acceptable salt thereof” (RIKEN, priority 2016, dated 2022)

Experiments:
tankyrase 1 (TNKS 1) = target: T1, tankyrase 1 (TNKS 1) (Homo sapiens, UniProt O95271); assay: Tankyrase inhibitory activity test (ELISA, self-polyADP ribosylation), tankyrase 1; format: biochemical; details: tankyrase 1, ELISA, self-polyADP ribosylation; read-out: TNKS1 inhibitory activity (IC50 class)
T1 construct: 1,024-1,327aa; made in house; host or cells: cell-free protein synthesis system
Experimental: (§1) (Test Example 1) Tankyrase Inhibitory Activity Test
(§2) For each of the compounds obtained in Examples (the test target compounds), the tankyrase inhibitory activity (an inhibitory activity against tankyrase 1 (TNKS 1) and an inhibitory activity against tankyrase 2 (TNKS 2)) was evaluated by measuring the enzymatic activity of tankyrase 1 and the enzymatic activity of tankyrase 2 by the ELISA technique using self-polyADP ribosylation as an index. First, Flag-tag fusion tankyrase 1 (1,024-1,327aa, SAM+PARP) and tankyrase 2 (613-1, 116aa, ANK5+SAM+PARP) were each synthesized by a cell-free protein synthesis system and diluted with a Tris buffer (50 mM Tris-HCl (pH 8.0), 150 mM NaCl, 10% glycerol). Then, 50 μL of the diluted tankyrase 1 or tankyrase 2 was added to a plate on which the anti-FLAGM 2 monoclonal antibody was immobilized (Anti-FLAG high sensitivity M2 coated plate) (SIGMA Corporation), and was allowed to stand at 4° C. overnight. Thereafter, the plate was washed four times with a PBS buffer containing 0.1% Triton X-100 (PBST buffer).
(§3) Subsequently, the test target compound diluted with an assay buffer (50 mM Tris-HCl (pH 8.0), 4 mM MgCl2, 0.2 mM DTT) (using DMSO as a control) was added to each well of the plate and was allowed to stand at room temperature for 10 minutes. Thereafter, a biotin-labeled NAD solution (225 μM NAD, 25 μM 6-Biotin-17-NAD (Trevigen Inc.)) was added as a donor substrate and mixed with the resultant test target compound, and the reaction was allowed to proceed at 30° C. for 45 minutes. Instead of the biotin-labeled NAD solution, distilled water was added to blank wells. After the reaction, the plate was washed four times with the PBST buffer. Thereafter, HRP (horseradish peroxidase)-labeled streptavidin (Trevigen Inc.) diluted 1,000-fold with the PBS buffer was added to each well, and the reaction was allowed to proceed at room temperature for 20 minutes. After the plate was washed four times with the PBST buffer, a chemiluminescent substrate solution TACS-Sapphire (Trevigen Inc.) was added to each well and the reaction was allowed to proceed at room temperature for 20 minutes. Then, the chemiluminescence intensity was measured using a chemiluminescence measuring apparatus.
(§4) The residual enzyme activity in the presence of the test target compound was determined in accordance with the following formula. Based on the residual enzyme activity at multiple concentrations of the test target compound, an enzyme inhibition activity was calculated as a 50% inhibitory concentration (IC50 value) using data analysis software named Origin (LightStone Corp.).

[1] = system: human colorectal cancer cell line, COLO-320DM; assay: Cell proliferation inhibitory activity test (Celltiter-Glo Luminescent Cell Viability Assay); format: cell-based; details: COLO-320DM cells, 96 hours, read-out: COLO-320 DM cell proliferation inhibitory activity (GI50 class)
Experimental: (Test Example 2) Cell Proliferation Inhibitory Activity Test
The cell proliferation inhibitory activity of the compound obtained in each of Examples against human colorectal cancer cell line, COLO-320DM was evaluated by Celltiter-Glo Luminescent Cell Viability Assay (Promega Corporation, G7573). The COLO-320 DM cells were cultured in a RPMI-1640 medium (Wako Pure Chemical Industries, Ltd., 189-02025) containing 10% fetal bovine serum and 2 mM of glutamine. The cultured cells were washed with PBS and then detached with trypsin/EDTA to prepare a cell solution containing 3×10^4 cells/mL.
Next, the cell solution was seeded in a 96 well microplate (Thermo/Nunc, 136101) in an amount of 70 μL/well and was cultured overnight under conditions at 37° C. with 5% CO2. On the next day, 10 μL/well of a solution in which the test target compound (DMSO solution) was diluted with the cell culture medium (a final DMSO concentration of 1%) was added and the reaction was allowed to proceed under conditions at 37° C. with 5% CO2 for 96 hours (a 1% DMSO solution was used as a control). Subsequently, 80 μL/well of Celltiter-Glo Luminescent Cell Viability Assay reagent (Promega Corporation, G7573) was added, followed by agitation for 2 minutes with a shaker under shielding with aluminum foil. Thereafter, the resultant solution was allowed to stand for reaction at room temperature for 10 minutes.
After that, the luminescent signal was measured with a luminometer (Biotech, Synergy). The cell proliferation inhibitory activity was evaluated by obtaining a percentage of a cell proliferation volume of each compound-added group with respect to a cell proliferation volume (100%) of a control group in which no test target component solution was added, and calculating a value of compound concentration (GI50) required to reduce the remaining cell volume to 50% of the remaining cell volume of the control. […] The results are shown in Tables 120 to 123 together with the results of the tankyrase inhibition activity test.

tankyrase 2 (TNKS 2) = target: T2, tankyrase 2 (TNKS 2) (Homo sapiens, UniProt Q9H2K2); assay: Tankyrase inhibitory activity test (ELISA, self-polyADP ribosylation), tankyrase 2; format: biochemical; details: tankyrase 2, ELISA, self-polyADP ribosylation; read-out: TNKS2 inhibitory activity (IC50 class)
T2 construct: 613-1, 116aa; made in house; host or cells: cell-free protein synthesis system
Experimental: as §1, §2, §3, §4

T1 sequence (O95271 1024-1327): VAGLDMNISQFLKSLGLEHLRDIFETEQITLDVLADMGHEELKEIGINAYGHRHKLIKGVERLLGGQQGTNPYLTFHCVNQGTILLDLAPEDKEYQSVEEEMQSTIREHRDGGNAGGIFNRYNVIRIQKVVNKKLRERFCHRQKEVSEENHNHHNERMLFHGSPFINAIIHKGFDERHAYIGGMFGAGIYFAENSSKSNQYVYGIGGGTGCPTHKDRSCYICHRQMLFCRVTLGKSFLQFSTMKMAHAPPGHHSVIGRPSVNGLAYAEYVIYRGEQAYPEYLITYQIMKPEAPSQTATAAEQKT
T2 sequence (Q9H2K2 613-1166): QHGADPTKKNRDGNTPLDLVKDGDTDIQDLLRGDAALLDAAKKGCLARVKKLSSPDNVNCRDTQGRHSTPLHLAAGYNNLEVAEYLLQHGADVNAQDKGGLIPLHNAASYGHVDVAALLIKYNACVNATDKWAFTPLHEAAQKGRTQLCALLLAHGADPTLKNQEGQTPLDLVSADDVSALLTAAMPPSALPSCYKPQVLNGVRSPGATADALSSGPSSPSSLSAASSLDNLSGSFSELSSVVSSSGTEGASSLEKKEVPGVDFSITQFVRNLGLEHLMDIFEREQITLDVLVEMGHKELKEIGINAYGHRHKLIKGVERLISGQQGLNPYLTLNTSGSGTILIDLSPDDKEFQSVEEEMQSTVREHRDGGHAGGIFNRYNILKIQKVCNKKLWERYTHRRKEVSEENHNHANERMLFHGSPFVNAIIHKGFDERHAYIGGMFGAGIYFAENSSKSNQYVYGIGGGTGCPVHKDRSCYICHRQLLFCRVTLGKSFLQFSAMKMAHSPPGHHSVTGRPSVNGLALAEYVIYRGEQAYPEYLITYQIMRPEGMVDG

Row | SMILES | IC50 (tankyrase 1 (TNKS 1)) | GI50 [1] | IC50 (tankyrase 2 (TNKS 2))
1 | CN1CCCc2c1nc(N1CCC3(CC1)CN(CCO)c1cc(F)cc(F)c13)[nH]c2=O [Example 338, 2-[4,6-difluoro-1-(2-hydroxyethyl)spiro [indoline-3,4′-piperidin]-1′-yl]-8-methyl-5,6,7,8-tetrahydro-pyrido [2,3-d] pyrimidin-4(3H)-one] | 20 to 200 nM | 100 to 600 nM | < 20 nM
2 | O=c1[nH]c(N2CCC3(CC2)CN(Cc2cccc(F)c2)c2cc(F)cc(F)c23)nc2c1CCCC2 [Example 342, 2-[4,6-difluoro-1-(3-fluorobenzyl)spiro [indoline-3,4′-piperidin]-1′-yl]-5,6,7,8-tetrahy-droquinazolin-4(3H)-one] | 20 to 200 nM | 600 to 1000 nM | < 20 nM
3 | O=c1[nH]c(N2CCC3(CC2)CN(Cc2ccc(Cl)nc2)c2cc(F)cc(F)c23)nc2c1CCCC2 [Example 344, 2-{1-[(6-chloropyridin-3-yl)methyl]-4,6-di-fluorospiro[indoline-3,4′-piperidin]-1′-yl]-5,6,7,8-tetrahydroquin-azolin-4(3H)-one] | < 20 nM | 100 to 600 nM | < 20 nM
4 | Cn1ccc2c(=O)[nH]c(N3CCC4(CC3)CN(Cc3cccnc3)c3cc(F)cc(F)c34)nc21 [Example 347, 2-[4,6-difluoro-1-(pyridin-3-ylmethyl)spiro [indoline-3,4′-piperidine]-1′-yl]-7-methyl-3,7-dihydro-4H-pyrrolo [2,3-d]pyrimidin-4-one] | 20 to 200 nM | 600 to 1000 nM | 20 to 200 nM
5 | CN1CCCc2c1nc(N1CCC3(CC1)C(=O)N(C)c1cc(O)cc(F)c13)[nH]c2=O [Example 354, 4-fluoro-6-hydroxy-1-methyl-1′-(8-methyl-4-oxo-3,4,5,6,7,8-hexahydropyrido [2,3-d]pyrimidin-2-yl) spiro[indoline-3,4′-piperidin]-2-one] | < 20 nM | 100 to 600 nM | < 20 nM
6 | CN1CCCc2c1nc(N1CCC3(CC1)C(=O)N(C)c1cc(OCCO)cc(F)c13)[nH]c2=O [Example 356, 4-fluoro-6-(2-hydroxy-ethoxy)-1-methyl-1′-(8-methyl-4-oxo-3,4,5,6,7,8-hexahydro-pyrido[2,3-d]pyrimidin-2-yl) spiro [indoline-3,4′-piperidin]-2-one] | < 20 nM | 100 to 600 nM | < 20 nM
7 | CN1CCCc2c1nc(N1CCC3(CC1)C(=O)N(C)c1cc(OCCN4CCOCC4)cc(F)c13)[nH]c2=O [Example 360, 4-fluoro-1-methyl-1′-(8-methyl-4-oxo-3,4,5,6,7,8-hexahydropy-rido[2,3-d]pyrimidin-2-yl)-6-(2-morpho-linoethoxy) spiro [indoline-3,4′-piperidin]-2-one] | < 20 nM | 100 to 600 nM | < 20 nM
8 | CN1CCCc2c1nc(N1CCC3(CC1)C(=O)N(C)c1cc(OCCN4CCS(=O)(=O)CC4)cc(F)c13)[nH]c2=O [Example 361, 6-[2-(1,1-dioxidothio-morpholino)ethoxy]-4-fluoro-1-methyl-1′-(8-methyl-4-oxo-3,4,5,6,7,8-hexahydropy-rido[2,3-d]pyrimidin-2-yl)spiro [indoline-3,4′-piperidin]-2-one] | < 20 nM | 600 to 1000 nM | < 20 nM
9 | COCCOc1cc(F)c2c(c1)N(C)C(=O)C21CCN(c2nc3c(c(=O)[nH]2)CCCN3C)CC1 [Example 366, 4-fluoro-6-(2-methoxy)-1-methyl-1′-(8-methyl-4-oxo-3,4,5,6,7,8-hexahydropy-rido[2,3-d]pyrimidin-2-yl)spiro [indoline-3,4′-piperidin]-2-one] | < 20 nM | 100 to 600 nM | < 20 nM
10 | CN1CCCc2c1nc(N1CCC3(CC1)C(=O)N(C)c1cc(OCCCN4CCCC4)cc(F)c13)[nH]c2=O [Example 367, 4-fluoro-1-methyl-1′-(8-methyl-4-oxo-3,4,5,6,7,8-hexahydropy-rido[2,3-d]pyrimidin-2-yl)-6-[3-(pyrrolidin-1-yl)propoxy] spiro[indoline-3,4′-piperidin]-2-one] | < 20 nM | 100 to 600 nM | < 20 nM

More lines, now with the values ahead:

Row | IC50 (tankyrase 1 (TNKS 1)) | GI50 [1] | IC50 (tankyrase 2 (TNKS 2)) | SMILES
11 | < 20 nM | 100 to 600 nM | < 20 nM | CN1CCCc2c1nc(N1CCC3(CC1)C(=O)N(C)c1cc(F)cc(F)c13)[nH]c2=O [Example 339, 4,6-difluoro-1-methyl-1′-(8-methyl-4-oxo-3,4,5,6,7,8-hexahydro-pyrido[2,3-d]pyrimidin-2-yl)spiro [indoline-3,4′-piperidin]-2-one]
12 | < 20 nM | 100 to 600 nM | < 20 nM | CN1CCCc2c1nc(N1CCC3(CC1)C(=O)N(CCO)c1cc(F)cc(F)c13)[nH]c2=O [Example 340, 4,6-difluoro-1-(2-hydroxyethyl)-1′-(8-methyl-4-oxo-3,4,5,6,7,8-hexahydro-pyrido[2,3-d]pyrimidin-2-yl)spiro [indoline-3,4′-piperidin]-2-one]
13 | 20 to 200 nM | 600 to 1000 nM | 20 to 200 nM | O=c1[nH]c(N2CCC3(CC2)CN(Cc2ccccc2F)c2cc(F)cc(F)c23)nc2c1CCCC2 [Example 341, 2-[4,6-difluoro-1-(2-fluorobenzyl)spiro [indoline-3,4′-piperidin]-1′-yl]-5,6,7,8-tetrahy-droquinazolin-4(3H)-one]
14 | 20 to 200 nM | 100 to 600 nM | < 20 nM | CN1CCCc2c1nc(N1CCC3(CC1)CN(Cc1cccnc1)c1cc(F)cc(F)c13)[nH]c2=O [Example 351, 2-[4,6-difluoro-1-(pyridin-3-ylmethyl)spiro [indoline-3,4′-piperi-dine]-1′-yl]-8-methyl-5,6,7,8-tetrahydro pyrido [2,3-d]pyrimidin-4(3H)-one]
15 | < 20 nM | 600 to 1000 nM | < 20 nM | CN(C)CCOc1cc(F)c2c(c1)N(C)C(=O)C21CCN(c2nc3c(c(=O)[nH]2)CCCN3C)CC1 [Example 357, 6-[2-(dimethylamino)ethoxy]-4-fluoro-1-methyl-1′-(8-methyl-4-oxo-3,4,5,6,7,8-hexa-hydropyrido [2,3-d]pyrimidin-2-yl) spiro[indoline-3,4′-piperidin]-2-one]
16 | < 20 nM | 100 to 600 nM | < 20 nM | CN1CCN(CCOc2cc(F)c3c(c2)N(C)C(=O)C32CCN(c3nc4c(c(=O)[nH]3)CCCN4C)CC2)CC1 [Example 362, 4-fluoro-1-methyl-1′-(8-methyl-4-oxo-3,4,5,6,7,8-hexahydropy-rido[2,3-d]pyrimidin-2-yl)-6-[2-(4-methyl-piperazin-1-yl)ethoxy] spiro[indoline-3,4′-piperidin]-2-one]
17 | < 20 nM | 600 to 1000 nM | < 20 nM | CN1CCCc2c1nc(N1CCC3(CC1)C(=O)N(C)c1cc(OCCCN4CCOCC4)cc(F)c13)[nH]c2=O [Example 365, 4-fluoro-1-methyl-1′-(8-methyl-4-oxo-3,4,5,6,7,8-hexahydro-pyrido[2,3-d]pyrimidin-2-yl)-6-(3-morpholino-propoxy) spiro[indoline-3,4′-piperidin]-2-one]
